{"source": "paper PMC7312353", "about": "“Lipid Raft Destabilization Impairs Mouse TRPA1 Responses to Cold and Bacterial Lipopolysaccharides” (International Journal of Molecular Sciences, 2020)", "molecular_target": "mouse TRPA1 (mTRPA1), Transient receptor potential ankyrin 1 cation channel (Mus musculus, UniProt Q8BLA8)", "sequence (Q8BLA8 whole entry)": "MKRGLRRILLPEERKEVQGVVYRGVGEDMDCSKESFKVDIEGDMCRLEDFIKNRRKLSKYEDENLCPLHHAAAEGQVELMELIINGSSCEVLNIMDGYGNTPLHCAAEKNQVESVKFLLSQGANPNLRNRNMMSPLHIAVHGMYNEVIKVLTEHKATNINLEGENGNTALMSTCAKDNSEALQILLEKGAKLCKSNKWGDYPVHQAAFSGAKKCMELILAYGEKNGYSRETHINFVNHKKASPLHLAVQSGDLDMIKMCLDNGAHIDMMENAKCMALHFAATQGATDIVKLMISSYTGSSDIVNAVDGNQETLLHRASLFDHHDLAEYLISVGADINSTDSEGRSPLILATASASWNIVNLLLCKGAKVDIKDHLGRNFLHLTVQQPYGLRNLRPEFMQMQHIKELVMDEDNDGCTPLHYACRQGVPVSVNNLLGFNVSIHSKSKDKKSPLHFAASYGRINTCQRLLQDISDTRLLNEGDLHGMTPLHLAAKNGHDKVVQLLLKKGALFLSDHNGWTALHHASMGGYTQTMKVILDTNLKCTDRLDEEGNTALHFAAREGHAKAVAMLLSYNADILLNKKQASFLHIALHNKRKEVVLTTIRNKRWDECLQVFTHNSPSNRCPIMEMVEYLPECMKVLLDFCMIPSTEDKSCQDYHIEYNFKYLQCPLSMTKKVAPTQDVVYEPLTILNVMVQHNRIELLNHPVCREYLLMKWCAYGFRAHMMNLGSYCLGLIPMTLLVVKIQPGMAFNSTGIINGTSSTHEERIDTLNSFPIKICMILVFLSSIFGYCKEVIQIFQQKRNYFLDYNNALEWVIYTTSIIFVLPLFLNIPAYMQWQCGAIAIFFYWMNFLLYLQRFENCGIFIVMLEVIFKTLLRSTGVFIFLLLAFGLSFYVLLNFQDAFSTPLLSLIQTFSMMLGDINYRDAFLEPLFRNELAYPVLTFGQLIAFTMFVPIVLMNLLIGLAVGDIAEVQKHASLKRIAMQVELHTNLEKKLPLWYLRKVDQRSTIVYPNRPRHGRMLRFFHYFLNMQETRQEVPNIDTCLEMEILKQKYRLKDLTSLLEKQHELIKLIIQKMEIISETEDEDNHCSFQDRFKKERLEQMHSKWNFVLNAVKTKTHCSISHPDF", "assay": "Fura-2 ratiometric Ca2+ imaging, concentration-response in CHO-K1 cells stably transfected with mTRPA1", "format": "cell-based"}
{"compound": "C=CCN=C=S", "note": "[AITC, allyl isothiocyanate]", "values": [{"measurement": "EC50", "value": "4.6 ± 1.1", "unit": "µM"}]}
